Assay results as given in patent US20090012152A1, “Use of Tetramic Acid Derivatives for Controlling Insects from the Genus of the Plane Lice (Sternorrhyncha)” (Bayer CropScience Aktiengesellschaft, priority 2005, published 2009).

Legend:
Assay type in all cases: in vivo
Dysaphis plantaginea = assay: Example 41: apple trees treated against Dysaphis plantaginea (Henderson and Tilton); conditions: live animals on shoots, % a.i.: imidacloprid 0.007, I-9 0.0144, I-2 0.0144; for Effect (%) 7 d: 7 d after treatment; for Effect (%) 14 d: 14 d after treatment
Protocol: (§1) In three replications, three about 8-year-old apple trees of the cultivar “Golden Delicious” are treated eradicatively against Dysaphis plantaginea and Aphis pomi. The application is carried out using a motor-operated barrow-mounted sprayer. Here, the active compounds Example (I-9) (240 SC) and Example (I-2) (240 SC) in the stated amount are tested against the commercial standard imidacloprid (200 SL), at the stated application rate. The application rate is 1200 l of water/ha.
(§2) Evaluation is carried out before and also 7 d and 14 d after the treatment by counting the live animals on the shoots. The efficacy is then calculated by calculating the effect on the population in percent according to Henderson and Tilton.

Aphis pomi [1] = assay: Example 41: apple trees treated against Aphis pomi (Henderson and Tilton); conditions: live animals on shoots, % a.i.: imidacloprid 0.007, I-9 0.0144, I-2 0.0144; for Effect (%) 7 d: 7 d after treatment; for Effect (%) 14 d: 14 d after treatment
Protocol: as §1, §2

Macrosiphum euphorbiae = assay: Example 43: aubergines treated against Macrosiphum euphorbiae; conditions: nymphs on leaves, % a.i.: imidacloprid 0.014, I-9, I-2, I-11 0.0144; for Kill (%) 7 d: 7 d after second treatment; for Kill (%) 14 d: 14 d after second treatment
Protocol: In three replications, plots of a size of 10 m^2 with aubergines of the cultivar “F 100” are treated against Macrosiphum euphorbiae. The application is carried out using a knapsack sprayer operated with pressurized air. Here, the active compounds Example (I-9) (60 SC), Example (I-2) (60 SC) and Example (I-11) (60 SC) and the commercial standard imidacloprid (70 WG) are tested at the stated application rates. Three applications are carried out, at an interval of 7 or 8 days. The application rate is 1000 l of water/ha.
Evaluation is carried out 7 and 14 days after the second treatment by rating the kill of the nymphs on the leaves.

Paratrioza cockerelli = assay: Example 7: bell peppers treated against Paratrioza cockerelli; conditions: nymphs on leaves, g a.i./ha: imidacloprid 52.6, I-4 72, dimethoate 561; for Kill (%) 7 d: 7 d after treatment; for Kill (%) 15 d: 15 d after treatment
Protocol: In four replications, plots of a size of about 7 m^2 with bell peppers of the cultivar “Jupiter” are treated against Paratrioza cockerelli. The application is carried out with a knapsack sprayer operated with pressurized air. Here, the active compound Example (I-4) (240 SC) is applied in a tank mix with 0.2% a.i. of rapeseed oil methyl ester (500 EW) and the commercial standards imidacloprid 192 SC and dimethoate (480 EC) are applied in a tank mix with 0.125% Induce at the stated application rates. The application is carried out with an application rate of 467 l of water/ha.
Evaluation is carried out 7 and 15 days after the treatment by rating the kill of the animals (nymphs) on the leaves.

Pseudococcus spp. = assay: Example 28: vines treated against Pseudococcus spp.; conditions: 28 days after last of two treatments, on grapes, imidacloprid drip irrigation 560 g/ha, I-4 0.0168%, I-9 0.0144% spray
Protocol: In four replications, three in each case about 12-year-old vines of the cultivar “Auvemat” are treated against Pseudococcus spp. The commercial standard used is an application with imidacloprid at the recommended application rate, by drip irrigation. The active compounds are applied by spraying using a knapsack sprayer operated with pressurized air. Here, the active compounds Example (I-4) (240 SC) and Example (I-9) (240 SC) are applied in a tank mix with 0.1% a.i. of rapeseed oil methyl ester (500 EW), at the stated amount. Two applications are carried out at an interval of 15 days. The application rate is 1776 l of water/ha. Evaluation is carried out 28 days after the last treatment by rating the kill on grapes in percent.

[2] = tested on: Trialeurodes vaporariorum; assay: Example 34: tomatoes treated against Trialeurodes vaporariorum; conditions: larvae on leaves, % a.i.: imidacloprid 0.015, I-9 0.0144, I-4 0.0144
Protocol: In three replications, plots of a size of 5 m^2 with tomatoes of the cultivar “Rio Grande” are treated against Trialeurodes vaporariorum. The application is carried out using a motor-operated knapsack apparatus. Here, the active compounds Example (I-9) (240 SC) and Example (I-4) (240 SC) and the commercial standard imidacloprid (200 SL) are tested at the stated application rates. The application rate is 1000 l of water/ha. Three applications are carried out, at an interval of 11 or 10 days.
Evaluation is in each case carried out 7 or 10 days after each treatment, by rating the kill of the larvae on the leaves.

Aphis pomi [3] = assay: Example 40: apple trees treated against Aphis pomi; conditions: population on shoots, % a.i.: imidacloprid 0.007, I-9 0.0144, I-4 0.0144; for Kill (%) 14 d: 14 d after treatment; for Kill (%) 21 d: 21 d after treatment
Protocol: In three replications, three about 22-year-old apple trees of the cultivar “Golden Delicious” are treated eradicatively against Dysaphis plantaginea and Aphis pomi. The application is carried out using a motor-operated barrow-mounted sprayer. Here, the active compounds Example (I-9) (240 SC) and Example (I-4) (240 SC) in the stated amount are tested against the commercial standard imidacloprid (200 SL), at the stated application rate. The application rate is 1200 l of water/ha.
Evaluation is carried out 14 d and 21 d after the treatment by rating the kill of the population on the shoots.

Phorodon humuli = assay: Example 44: hop plants treated against hop aphid; conditions: on leaves, % a.i.: imidacloprid 0.0053, I-9 0.0036, I-4 0.0084; for Kill (%) 6 d: 6 d after treatment; for Kill (%) 46 d: 46 d after treatment
Protocol: In two replications, about 4-year-old hop plants of the cultivar “Spalter” are treated against the hop aphid Phorodon humuli. The application is carried out using a knapsack sprayer operated with pressurized air. Here, the active compounds Example (I-9) (240 SC) and Example (I-4) (240 SC), in a tank mix with 0.1% a.i. of rapeseed oil methyl ester (500 EW), and the standard imidacloprid are applied at the stated application rates. The application rate is 1200 l of water/ha.
The first evaluation is carried out 6 days and the last evaluation 46 days after the treatment by rating the kill of the animals on the leaves.

Aphis gossypii = assay: Example 52: melons treated against Aphis gossypii; conditions: on shoots, g a.i./ha: imidacloprid 100, I-4 48; for Kill (%) 3 d: 3 d after treatment; for Kill (%) 7 d: 7 d after treatment
Protocol: In three replications, plots of a size of 15 m^2 with melons are treated against Aphis gossypii. The application is carried out using a knapsack sprayer operated with pressurized air. Here, the active compound Example (I-4) (240 SC), in a tank mix with 0.1% a.i. of rapeseed oil methyl ester (500 EW), and the standard imidacloprid (200 SL) are applied at the stated application rates. The application rate is 500 l of water/ha.
Evaluation is carried out 3 days and 7 days after the treatment by rating the kill of the animals on the shoots.

SMILES | Effect (%) 7 d (Dysaphis plantaginea) [%] | Effect (%) 14 d (Dysaphis plantaginea) [%] | Effect (%) 7 d (Aphis pomi [1]) [%] | Effect (%) 14 d (Aphis pomi [1]) [%] | Kill (%) 7 d (Macrosiphum euphorbiae) [%] | Kill (%) 14 d (Macrosiphum euphorbiae) [%] | Kill (%) 7 d (Paratrioza cockerelli) [%] | Kill (%) 15 d (Paratrioza cockerelli) [%] | Kill (%) (Pseudococcus spp.) | Kill (%) 7 d after the 2nd treatment [2] [%] | Kill (%) 10 d after the 1st treatment [2] [%] | Kill (%) 10 d after the 3rd treatment [2] [%] | Kill (%) 14 d (Aphis pomi [3]) [%] | Kill (%) 21 d (Aphis pomi [3]) [%] | Kill (%) 6 d (Phorodon humuli) [%] | Kill (%) 46 d (Phorodon humuli) [%] | Kill (%) 3 d (Aphis gossypii) [%] | Kill (%) 7 d (Aphis gossypii) [%]
CCOC(=O)OC1=C(c2cc(C)ccc2Br)C(=O)NC12CCC(OC)CC2 (stereo not drawn) [Example (I-2)] | 92.3 | 99.2 | 99.1 | 97.1 | 99 | 91 |  |  |  |  |  |  |  |  |  |  |  | 
CCOC(=O)OC1=C(c2cc(C)ccc2C)C(=O)NC12CCC(OC)CC2 (stereo not drawn) [Example (I-4)] |  |  |  |  |  |  | 90 | 100 | 99 | 100 | 81.9 | 94.3 | 96.9 | 98.8 | 95 | 98.7 | 94.7 | 100
O=[N+]([O-])NC1=NCCN1Cc1ccc(Cl)nc1 [imidacloprid, reference compound] | 99.6 | 99.5 | 99 | 83.5 | 100 | 100 | 90 | 0 | 100 | 88.4 | 53.5 | 67.5 | 93.6 | 92.5 | 99 | 97.6 | 98.2 | 100
